Source: the NIST ThermoML archive (doi:10.1016/j.jct.2009.11.013)
± gives the expanded uncertainty stated by the source.

What was measured:
[1] = molar enthalpy of vaporization or sublimation; details: 298.15 K; Liquid; Calvet microcalorimetry
[2] = Liquid; Calvet microcalorimetry

molar enthalpy [1] [kJ/mol] | Normal boiling temperature [2] [°C] | Structure (SMILES)
55.6 ± 2.6 | – | O=C1C=CCO1 [(5H)-furan-2-one]
56 ± 2.4 | 103 ± 0.2 | O=C1C=CCS1 [2(5H)-thiophenone]
